Experiment [1] concerns the target Fibroblast growth factor receptor 4 (Homo sapiens) (UniProt P22455). Description: Inhibition of FGFR4 (unknown origin) assessed as residual activity at 100 nM by KINOMEscan analysis relative to control.
Experiment [2] deals with T1, Serine/threonine-protein kinase Sgk1 (Homo sapiens) (UniProt O00141).
T1 sequence (whole entry): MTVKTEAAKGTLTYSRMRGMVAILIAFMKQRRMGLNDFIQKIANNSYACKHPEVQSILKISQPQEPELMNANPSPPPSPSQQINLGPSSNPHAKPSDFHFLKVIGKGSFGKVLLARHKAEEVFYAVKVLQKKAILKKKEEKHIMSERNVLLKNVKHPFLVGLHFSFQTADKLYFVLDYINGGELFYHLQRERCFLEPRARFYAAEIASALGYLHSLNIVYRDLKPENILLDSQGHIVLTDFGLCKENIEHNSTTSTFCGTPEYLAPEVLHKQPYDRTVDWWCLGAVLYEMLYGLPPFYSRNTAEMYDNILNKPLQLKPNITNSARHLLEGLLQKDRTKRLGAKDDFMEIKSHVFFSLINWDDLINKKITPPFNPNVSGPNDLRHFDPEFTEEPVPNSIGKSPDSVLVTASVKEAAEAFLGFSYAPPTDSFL
The experiment is described as follows: Inhibition of SGK (unknown origin) assessed as residual activity at 100 nM by KINOMEscan analysis relative to control.

Experiment [3] concerns the target T2, Son of sevenless homolog 1 (Homo sapiens) (UniProt Q07889).
T2 sequence (whole entry): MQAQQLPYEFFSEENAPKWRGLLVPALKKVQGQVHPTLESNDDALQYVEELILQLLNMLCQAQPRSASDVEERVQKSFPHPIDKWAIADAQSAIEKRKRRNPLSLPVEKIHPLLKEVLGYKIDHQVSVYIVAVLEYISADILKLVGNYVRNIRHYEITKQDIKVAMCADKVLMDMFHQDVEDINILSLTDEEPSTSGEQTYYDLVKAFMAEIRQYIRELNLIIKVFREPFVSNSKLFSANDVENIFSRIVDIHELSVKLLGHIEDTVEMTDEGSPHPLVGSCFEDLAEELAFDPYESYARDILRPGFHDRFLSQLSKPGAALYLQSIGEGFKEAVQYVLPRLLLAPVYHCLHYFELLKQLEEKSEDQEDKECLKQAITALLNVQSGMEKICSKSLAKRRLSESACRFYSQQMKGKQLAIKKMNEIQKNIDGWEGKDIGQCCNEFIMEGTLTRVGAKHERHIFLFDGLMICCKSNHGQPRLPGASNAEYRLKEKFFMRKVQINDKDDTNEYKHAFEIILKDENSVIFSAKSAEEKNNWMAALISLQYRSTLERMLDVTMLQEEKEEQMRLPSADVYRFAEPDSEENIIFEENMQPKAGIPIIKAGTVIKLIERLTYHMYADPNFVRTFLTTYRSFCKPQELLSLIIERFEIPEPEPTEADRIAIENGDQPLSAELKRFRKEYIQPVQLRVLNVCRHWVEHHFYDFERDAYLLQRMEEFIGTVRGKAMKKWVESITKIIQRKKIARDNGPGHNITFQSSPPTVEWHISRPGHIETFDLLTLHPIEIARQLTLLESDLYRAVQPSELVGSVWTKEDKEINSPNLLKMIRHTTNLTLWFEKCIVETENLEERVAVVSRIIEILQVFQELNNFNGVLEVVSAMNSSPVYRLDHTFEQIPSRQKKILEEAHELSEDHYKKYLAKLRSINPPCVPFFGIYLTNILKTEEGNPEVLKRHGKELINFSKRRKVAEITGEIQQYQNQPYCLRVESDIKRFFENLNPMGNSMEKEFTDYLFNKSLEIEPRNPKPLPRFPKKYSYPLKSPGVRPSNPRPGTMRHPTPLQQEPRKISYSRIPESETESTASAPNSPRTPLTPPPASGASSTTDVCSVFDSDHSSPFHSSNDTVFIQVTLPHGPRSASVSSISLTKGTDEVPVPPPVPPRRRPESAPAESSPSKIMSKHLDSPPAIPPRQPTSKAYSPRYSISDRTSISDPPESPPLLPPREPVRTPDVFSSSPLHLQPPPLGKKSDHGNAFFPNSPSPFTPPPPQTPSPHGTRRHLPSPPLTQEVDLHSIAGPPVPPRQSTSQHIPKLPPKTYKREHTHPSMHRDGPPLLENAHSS
The experiment is described as follows: Binding affinity to N-terminal His10-tagged wild-type recombinant human SOS1 catalytic domain (564 to 1049 residues) expressed in Escherichia coli assessed as change in Gibbs free energy by ITC analysis. For orientation: In ITC the heat of successive injections is recorded.

Experiment [4] has as its target Macrophage colony-stimulating factor 1 receptor (Homo sapiens) (UniProt P07333). Description: Inhibition of autoinhibited CSF1R (unknown origin) assessed as residual activity at 100 nM by KINOMEscan analysis relative to control.
Experiment [5] concerns the target T3, Dual specificity mitogen-activated protein kinase kinase 6 (Homo sapiens) (UniProt P52564).
T3 sequence (whole entry): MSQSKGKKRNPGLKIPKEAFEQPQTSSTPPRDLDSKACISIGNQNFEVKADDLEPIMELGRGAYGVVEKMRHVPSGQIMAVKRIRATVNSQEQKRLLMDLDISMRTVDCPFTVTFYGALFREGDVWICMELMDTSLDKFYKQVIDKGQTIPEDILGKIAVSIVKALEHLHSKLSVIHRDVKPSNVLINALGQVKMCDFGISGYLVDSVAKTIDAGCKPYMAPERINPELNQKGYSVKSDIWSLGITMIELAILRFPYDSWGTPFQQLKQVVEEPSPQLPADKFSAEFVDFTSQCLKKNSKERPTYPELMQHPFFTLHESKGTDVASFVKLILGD
Description: Inhibition of MEK6 (unknown origin) assessed as residual activity at 100 nM by KINOMEscan analysis relative to control.

Macrophage colony-stimulating factor 1 receptor (Homo sapiens), sequence (P07333 whole entry): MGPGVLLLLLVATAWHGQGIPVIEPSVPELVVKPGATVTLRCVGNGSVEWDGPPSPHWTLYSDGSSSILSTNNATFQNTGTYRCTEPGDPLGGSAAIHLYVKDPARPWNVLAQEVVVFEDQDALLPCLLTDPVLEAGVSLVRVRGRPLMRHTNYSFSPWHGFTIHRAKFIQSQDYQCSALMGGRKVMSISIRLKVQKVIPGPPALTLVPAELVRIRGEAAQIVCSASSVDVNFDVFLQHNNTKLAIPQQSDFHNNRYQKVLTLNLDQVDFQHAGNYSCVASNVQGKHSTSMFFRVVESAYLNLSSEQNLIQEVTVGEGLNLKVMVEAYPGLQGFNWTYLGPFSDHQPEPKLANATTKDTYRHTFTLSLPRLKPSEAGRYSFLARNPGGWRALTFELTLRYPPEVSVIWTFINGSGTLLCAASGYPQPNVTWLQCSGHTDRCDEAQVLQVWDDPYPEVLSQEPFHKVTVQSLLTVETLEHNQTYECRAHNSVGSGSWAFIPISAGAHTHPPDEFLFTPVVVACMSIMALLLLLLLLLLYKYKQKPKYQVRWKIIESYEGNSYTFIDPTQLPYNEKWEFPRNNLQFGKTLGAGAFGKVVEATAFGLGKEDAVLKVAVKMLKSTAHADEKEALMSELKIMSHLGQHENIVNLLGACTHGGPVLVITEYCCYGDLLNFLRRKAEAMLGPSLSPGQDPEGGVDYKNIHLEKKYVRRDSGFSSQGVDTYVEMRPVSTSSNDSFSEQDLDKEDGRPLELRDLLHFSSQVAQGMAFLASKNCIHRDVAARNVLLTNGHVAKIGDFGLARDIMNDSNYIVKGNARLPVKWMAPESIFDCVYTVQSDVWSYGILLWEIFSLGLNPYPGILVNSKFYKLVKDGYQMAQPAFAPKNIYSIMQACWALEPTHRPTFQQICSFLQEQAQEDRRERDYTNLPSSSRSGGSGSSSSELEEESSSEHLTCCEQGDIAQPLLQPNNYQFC
Fibroblast growth factor receptor 4 (Homo sapiens), sequence (P22455 22-802 limits assumed): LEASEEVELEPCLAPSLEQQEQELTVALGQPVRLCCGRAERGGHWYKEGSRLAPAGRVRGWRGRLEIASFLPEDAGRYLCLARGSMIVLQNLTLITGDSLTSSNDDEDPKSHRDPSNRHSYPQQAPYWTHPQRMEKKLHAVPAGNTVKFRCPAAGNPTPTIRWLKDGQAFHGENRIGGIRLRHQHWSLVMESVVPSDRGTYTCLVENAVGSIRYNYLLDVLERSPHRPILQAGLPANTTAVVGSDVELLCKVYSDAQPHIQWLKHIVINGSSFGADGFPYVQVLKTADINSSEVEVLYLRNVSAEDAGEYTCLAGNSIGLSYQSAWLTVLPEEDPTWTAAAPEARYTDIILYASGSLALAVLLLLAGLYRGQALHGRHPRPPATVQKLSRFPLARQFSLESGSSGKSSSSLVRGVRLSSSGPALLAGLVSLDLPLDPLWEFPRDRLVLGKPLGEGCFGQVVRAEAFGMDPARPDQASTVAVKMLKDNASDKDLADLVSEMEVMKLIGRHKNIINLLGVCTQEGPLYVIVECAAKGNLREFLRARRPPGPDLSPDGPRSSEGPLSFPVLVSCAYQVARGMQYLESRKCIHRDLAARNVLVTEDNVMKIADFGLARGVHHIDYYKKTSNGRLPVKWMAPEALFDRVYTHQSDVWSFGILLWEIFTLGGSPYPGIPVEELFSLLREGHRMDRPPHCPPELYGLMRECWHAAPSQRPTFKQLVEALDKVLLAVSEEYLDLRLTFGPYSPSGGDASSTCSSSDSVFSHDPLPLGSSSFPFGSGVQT

`COc1cc2ncnc(N[C@H](C)c3cccc4ccccc34)c2cc1OC`: the Activity in experiment [1] is 76%; in experiment [2] it was 87%; in experiment [4], 96%; in experiment [5] it was 98%. In experiment [3], the deltaG is -8.6 kcal/mol.
